# In patent publication US11731943B2, “Therapeutic compounds, compositions and methods of use thereof” (priority 2016, dated 2023):
# Read-outs that look alike come from different tables or passages of the source.
# Experiments:
# [1] = target: isolated recombinant JAK1 kinase domain (Homo sapiens (Human), UniProt P23458); assay: JAK1 enzyme assay (Caliper LabChip, Ki); format: biochemical; conditions: read-out: JAK1 Ki
# Summary of the method: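 Recombinant human JAK1 kinase domain phosphorylating an N-terminally 5-carboxyfluorescein-labelled JAK3-derived peptide, 30 min at 22 °C, stopped with EDTA (50 mM final). Phosphorylated fraction of total peptide read by Caliper LabChip mobility shift; Ki from Morrison tight-binding fit corrected for ATP competition (Ki=Ki,app/(1+[ATP]/Km,app)).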
# [2] = target: isolated recombinant JAK2 kinase domain (Homo sapiens (Human), UniProt O60674); assay: JAK2 enzyme assay (Caliper LabChip, Ki); format: biochemical
# Summary of the method: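 Recombinant human JAK1 or JAK2 kinase domain phosphorylating a 5-carboxyfluorescein-labelled JAK3-derived peptide; 30 min at 22 °C, stopped with EDTA (50 mM final). Phosphorylated product measured as a fraction of total peptide by Caliper LabChip mobility shift.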
# [3] = system: JAK1-dependent STAT6 phosphorylation downstream of IL-13 stimulation in BEAS-2B human bronchial epithelial cells; assay: JAK1 pathway assay in BEAS-2B cells (IL-13-pSTAT6, MSD); format: cell-based; conditions: BEAS-2B cells, IL-13 stimulation, read-out: IL-13 p-STAT6 BEAS-2B IC50
# Chain of isolated recombinant JAK1 kinase domain (P23458 875-1153): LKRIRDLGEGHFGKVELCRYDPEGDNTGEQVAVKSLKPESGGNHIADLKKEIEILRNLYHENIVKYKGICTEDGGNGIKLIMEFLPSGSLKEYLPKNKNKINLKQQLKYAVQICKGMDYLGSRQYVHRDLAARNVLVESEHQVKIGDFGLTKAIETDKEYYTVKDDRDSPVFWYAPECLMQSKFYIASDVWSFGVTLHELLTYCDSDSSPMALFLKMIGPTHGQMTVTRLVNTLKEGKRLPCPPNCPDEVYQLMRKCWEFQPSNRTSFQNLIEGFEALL
# Chain of isolated recombinant JAK2 kinase domain (O60674 849-1124): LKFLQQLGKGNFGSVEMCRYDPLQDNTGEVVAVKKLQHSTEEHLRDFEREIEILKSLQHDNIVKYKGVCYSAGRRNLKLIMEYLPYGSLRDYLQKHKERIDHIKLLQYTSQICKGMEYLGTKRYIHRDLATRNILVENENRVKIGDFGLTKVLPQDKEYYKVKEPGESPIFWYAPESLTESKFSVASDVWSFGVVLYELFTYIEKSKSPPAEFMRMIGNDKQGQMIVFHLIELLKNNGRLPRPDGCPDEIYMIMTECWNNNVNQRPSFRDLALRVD
Structure (SMILES),Ki [1] [nM],Ki [2] [nM],"IC50 ([3]; Homo sapiens, BEAS-2B) [nM]",IC50 [3] [nM]
"COC(=O)Nc1nn(C2(CC#N)CCN(Cc3ccc(-c4ccco4)cc3)CC2F)cc1C(N)=O (stereo not drawn) [Example 220, methyl N-[4-carbamoyl-1-[4-(cyanomethyl)-3-fluoro-1-[[4-(2-furyl)phenyl]methyl]-4-piperidyl]pyrazol-3-yl]carbamate]",0.27,0.44,15,–
"CCc1ccc(-c2ccc(CN3CCC(CC#N)(n4cc(C(N)=O)c(NC(=O)C5CC5C#N)n4)C(F)C3)cc2O)cc1 (stereo not drawn) [Example 221, 3-[(2-cyanocyclopropanecarbonyl)amino]-1-[4-(cyanomethyl)-1-[[4-(4-ethylphenyl)-3-hydroxy-phenyl]methyl]-3-fluoro-4-piperidyl]pyrazole-4-carboxamide]",0.3,1.7,90,–
"CCc1ccc(-c2ccc(CN3CCC(CC#N)(n4cc(C(N)=O)c(NC(=O)C5CC5C#N)n4)C(F)C3)cc2O)cc1 (stereo not drawn) [Example 222, 3-[(2-cyanocyclopropanecarbonyl)amino]-1-[4-(cyanomethyl)-1-[[4-(4-ethylphenyl)-3-hydroxy-phenyl]methyl]-3-fluoro-4-piperidyl]pyrazole-4-carboxamide]",0.18,0.43,–,52
"Cc1ccc(-c2ccc(CN3CCC(CC#N)(n4cc(C(N)=O)c(NC(=O)C5CC5)n4)C(F)C3)cc2)o1 (stereo not drawn) [Example 223, 1-[4-(cyanomethyl)-3-fluoro-1-[[4-(5-methyl-2-furyl)phenyl]methyl]-4-piperidyl]-3-(cyclopropanecarbonylamino) pyrazole-4-carboxamide]",0.38,0.34,12,–
"COC(=O)Nc1nn(C2(CC#N)CCN(Cc3ccc(-c4ccco4)c(O)c3)CC2F)cc1C(N)=O (stereo not drawn) [Example 224, methyl N-[4-carbamoyl-1-[4-(cyanomethyl)-3-fluoro-1-[[4-(2-furyl)-3-hydroxy-phenyl]methyl]-4-piperidyl]pyrazol-3-yl]carbamate]",0.16,0.15,19,–
"CCOC(=O)Nc1nn(C2(CC#N)CCN(Cc3ccc(-n4nccn4)cc3)CC2F)cc1C(N)=O (stereo not drawn) [Example 225, ethyl N-[4-carbamoyl-1-[4-(cyanomethyl)-3-fluoro-1-[[4-(triazol-2-yl)phenyl]methyl]-4-piperidyl]pyrazol-3-yl]carbamate]",0.62,1.3,44,–
"COC(=O)Nc1nn(C2(CC#N)CCN(Cc3ccc(-c4ccco4)nc3F)CC2F)cc1C(N)=O (stereo not drawn) [Example 226, methyl N-[4-carbamoyl-1-[4-(cyanomethyl)-3-fluoro-1-[[2-fluoro-6-(2-furyl)-3-pyridyl]methyl]-4-piperidyl]pyrazol-3-yl]carbamate]",0.37,0.56,49,–
"N#CCC1(n2cc(C(N)=O)c(NC(=O)C3CC3C#N)n2)CCN(Cc2ccc(-c3ccccc3)nc2F)CC1F (stereo not drawn) [Example 227, 3-[(2-cyanocyclopropanecarbonyl)amino]-1-[4-(cyanomethyl)-3-fluoro-1-[(2-fluoro-6-phenyl-3-pyridyl)methyl]-4-piperidyl]pyrazole-4-carboxamide]",0.31,0.63,54,–
"N#CCC1(n2cc(C(N)=O)c(NC(=O)C3CC3C#N)n2)CCN(CC2CCC(c3ccccc3)CC2)CC1F (stereo not drawn) [Example 228, 3-[(2-cyanocyclopropanecarbonyl)amino]-1-[4-(cyanomethyl)-3-fluoro-1-[(4-phenylcyclohexyl)methyl]-4-piperidyl]pyrazole-4-carboxamide]",1.5,7.7,–,77
"N#CCC1(n2cc(C(N)=O)c(NC(=O)C3CC3)n2)CCN(Cc2ccc(C3=CCCCC3)cc2)CC1F (stereo not drawn) [Example 229, 1-[4-(cyanomethyl)-1-[[4-(cyclohexen-1-yl)phenyl]methyl]-3-fluoro-4-piperidyl]-3-(cyclopropanecarbonylamino) pyrazole-4-carboxamide]",0.48,0.77,25,–
"N#CCC1(n2cc(C(N)=O)c(NC(=O)C3CC3C#N)n2)CCN(CC2CCC(c3ccccc3)CC2)CC1F (stereo not drawn) [Example 230, 3-[(2-cyanocyclopropanecarbonyl)amino]-1-[4-(cyanomethyl)-3-fluoro-1-[(4-phenylcyclohexyl)methyl]-4-piperidyl]pyrazole-4-carboxamide]",0.51,1.8,–,60
"N#CCC1(n2cc(C(N)=O)c(NC(=O)C3CC3C#N)n2)CCN(CC2CCC(c3ccccc3)CC2)CC1F (stereo not drawn) [Example 231, 3-[(2-cyanocyclopropanecarbonyl)amino]-1-[4-(cyanomethyl)-3-fluoro-1-[(4-phenylcyclohexyl)methyl]-4-piperidyl]pyrazole-4-carboxamide]",0.36,8.3,–,19
"CCc1ccc(-c2ccc(CN3CCC(CC#N)(n4cc(C(N)=O)c(NC(=O)OC)n4)C(F)C3)cc2)o1 (stereo not drawn) [Example 232, methyl N-[4-carbamoyl-1-[4-(cyanomethyl)-1-[[4-(5-ethyl-2-furyl)phenyl]methyl]-3-fluoro-4-piperidyl]pyrazol-3-yl]carbamate]",0.32,0.89,20,–
"N#CCC1(n2cc(C(N)=O)c(NC(=O)C3CC3)n2)CCN(CC2CCC(c3ccccc3)CC2)CC1F (stereo not drawn) [Example 233, 1-[4-(cyanomethyl)-3-fluoro-1-[(4-phenylcyclohexyl)methyl]-4-piperidyl]-3-(cyclopropanecarbonylamino) pyrazole-4-carboxamide]",0.3,0.45,39,–
"N#CCC1(n2cc(C(N)=O)c(NC(=O)C3CC3)n2)CCN(CC2CCC(c3ccccc3)CC2)CC1F (stereo not drawn) [Example 234, 1-[4-(cyanomethyl)-3-fluoro-1-[(4-phenylcyclohexyl)methyl]-4-piperidyl]-3-(cyclopropanecarbonylamino) pyrazole-4-carboxamide]",0.27,1,–,31
"COC(=O)Nc1nn(C2(CC#N)CCN(CC3CCC(c4ccccc4)CC3)CC2F)cc1C(N)=O (stereo not drawn) [Example 235, methyl N-[4-carbamoyl-1-[4-(cyanomethyl)-3-fluoro-1-[(4-phenylcyclohexyl)methyl]-4-piperidyl]pyrazol-3-yl]carbamate]",0.32,0.67,26,–
"COC(=O)Nc1nn(C2(CC#N)CCN(CC3CCC(c4ccccc4)CC3)CC2F)cc1C(N)=O (stereo not drawn) [Example 236, methyl N-[4-carbamoyl-1-[4-(cyanomethyl)-3-fluoro-1-[(4-phenylcyclohexyl)methyl]-4-piperidyl]pyrazol-3-yl]carbamate]",0.21,1.4,–,19
"COC(=O)Nc1nn(C2(CC#N)CCN(Cc3cc(O)c(-c4ccoc4)cc3F)CC2F)cc1C(N)=O (stereo not drawn) [Example 237, methyl N-[4-carbamoyl-1-[4-(cyanomethyl)-3-fluoro-1-[[2-fluoro-4-(3-furyl)-5-hydroxy-phenyl]methyl]-4-piperidyl]pyrazol-3-yl]carbamate]",0.22,0.3,27,–
"COC(=O)Nc1nn(C2(CC#N)CCN(Cc3cc(O)c(-c4ccco4)cc3F)CC2F)cc1C(N)=O (stereo not drawn) [Example 238, methyl N-[4-carbamoyl-1-[4-(cyanomethyl)-3-fluoro-1-[[2-fluoro-4-(2-furyl)-5-hydroxy-phenyl]methyl]-4-piperidyl]pyrazol-3-yl]carbamate]",0.29,0.35,18,–
"COC(=O)Nc1nn(C2(CC#N)CCN(Cc3ccc(-c4ccoc4)nc3F)CC2F)cc1C(N)=O (stereo not drawn) [Example 239, methyl N-[4-carbamoyl-1-[4-(cyanomethyl)-3-fluoro-1-[[2-fluoro-6-(3-furyl)-3-pyridyl]methyl]-4-piperidyl]pyrazol-3-yl]carbamate]",0.51,0.89,67,–
"N#CCC1(n2cc(C(N)=O)c(NC(=O)C3CC3C#N)n2)CCN(Cc2cc(O)c(-c3ccccc3)cc2F)CC1F (stereo not drawn) [Example 240, 3-[(2-cyanocyclopropanecarbonyl)amino]-1-[4-(cyanomethyl)-3-fluoro-1-[(2-fluoro-5-hydroxy-4-phenyl-phenyl)methyl]-4-piperidyl]pyrazole-4-carboxamide]",0.19,0.29,71,–
"CCn1ccc(-c2ccc(CN3CCC(CC#N)(n4cc(C(N)=O)c(NC(=O)OC)n4)C(F)C3)c(F)c2)n1 (stereo not drawn) [Example 241, methyl N-[4-carbamoyl-1-[4-(cyanomethyl)-1-[[4-(1-ethylpyrazol-3-yl)-2-fluoro-phenyl]methyl]-3-fluoro-4-piperidyl]pyrazol-3-yl]carbamate]",0.54,0.51,29,–
"CCn1ccc(-c2ccc(CN3CCC(CC#N)(n4cc(C(N)=O)c(NC(=O)C5CC5)n4)C(F)C3)c(F)c2)n1 (stereo not drawn) [Example 242, 1-[4-(cyanomethyl)-1-[[4-(1-ethylpyrazol-3-yl)-2-fluoro-phenyl]methyl]-3-fluoro-4-piperidyl]-3-(cyclopropanecarbonylamino) pyrazole-4-carboxamide]",0.6,0.51,55,–
"COC(=O)Nc1nn(C2(CC#N)CCC(N3CC(F)(c4ccccc4)C3)CC2)cc1C(N)=O (stereo not drawn) [Example 243, methyl N-[4-carbamoyl-1-[1-(cyanomethyl)-4-(3-fluoro-3-phenyl-azetidin-1-yl)cyclohexyl]pyrazol-3-yl]carbamate]",2.7,14,100,–
